Data taken from the NIST ThermoML archive (doi:10.1016/j.tca.2011.08.021).
“And” between values parts separate entries of the source, which are not always exact repeats. Equal entries are not always repeated.

Experiments:
[1] = 393 K; 101.33 kPa; Crystal; X-ray diffraction
[2] = molar heat capacity at constant pressure; conditions: 101.33 kPa, Crystal, Small sample (50 mg) DSC

[Nd+3].[Nd+3].[O-2].[O-2].[O-2].[O-2].[O-2].[O-2].[O-2].[Zr+4].[Zr+4] [dineodymium(III) dizirconium(IV) oxide]
Conditions | mass density [kg/m3]
[1] | 6411

[2]
Conditions | molar heat capacity at constant pressure
293 K | 236.67 J/K/mol
303 K | 238.41 J/K/mol
313 K | 240.75 J/K/mol
573 K | 275.35 J/K/mol
623 K | 280.65 J/K/mol
673 K | 284.79 J/K/mol
723 K | 288.11 J/K/mol
773 K | 290.8 J/K/mol
823 K | 293.01 J/K/mol
873 K | 294.85 J/K/mol
923 K | 296.39 J/K/mol
973 K | 297.7 J/K/mol
1023 K | 298.83 J/K/mol
1073 K | 299.79 J/K/mol
1123 K | 300.63 J/K/mol and 302 J/K/mol
1173 K | 301.36 J/K/mol
1273 K | 302.57 J/K/mol
1323 K | 303.07 J/K/mol
1373 K | 303.52 J/K/mol
